This is an account of results in the Kinase Knowledgebase extract (Sharma et al. 2016).

Molecules are shown by their SMILES.

Chain of PIK3CA (human) (P42336 whole entry, looked up): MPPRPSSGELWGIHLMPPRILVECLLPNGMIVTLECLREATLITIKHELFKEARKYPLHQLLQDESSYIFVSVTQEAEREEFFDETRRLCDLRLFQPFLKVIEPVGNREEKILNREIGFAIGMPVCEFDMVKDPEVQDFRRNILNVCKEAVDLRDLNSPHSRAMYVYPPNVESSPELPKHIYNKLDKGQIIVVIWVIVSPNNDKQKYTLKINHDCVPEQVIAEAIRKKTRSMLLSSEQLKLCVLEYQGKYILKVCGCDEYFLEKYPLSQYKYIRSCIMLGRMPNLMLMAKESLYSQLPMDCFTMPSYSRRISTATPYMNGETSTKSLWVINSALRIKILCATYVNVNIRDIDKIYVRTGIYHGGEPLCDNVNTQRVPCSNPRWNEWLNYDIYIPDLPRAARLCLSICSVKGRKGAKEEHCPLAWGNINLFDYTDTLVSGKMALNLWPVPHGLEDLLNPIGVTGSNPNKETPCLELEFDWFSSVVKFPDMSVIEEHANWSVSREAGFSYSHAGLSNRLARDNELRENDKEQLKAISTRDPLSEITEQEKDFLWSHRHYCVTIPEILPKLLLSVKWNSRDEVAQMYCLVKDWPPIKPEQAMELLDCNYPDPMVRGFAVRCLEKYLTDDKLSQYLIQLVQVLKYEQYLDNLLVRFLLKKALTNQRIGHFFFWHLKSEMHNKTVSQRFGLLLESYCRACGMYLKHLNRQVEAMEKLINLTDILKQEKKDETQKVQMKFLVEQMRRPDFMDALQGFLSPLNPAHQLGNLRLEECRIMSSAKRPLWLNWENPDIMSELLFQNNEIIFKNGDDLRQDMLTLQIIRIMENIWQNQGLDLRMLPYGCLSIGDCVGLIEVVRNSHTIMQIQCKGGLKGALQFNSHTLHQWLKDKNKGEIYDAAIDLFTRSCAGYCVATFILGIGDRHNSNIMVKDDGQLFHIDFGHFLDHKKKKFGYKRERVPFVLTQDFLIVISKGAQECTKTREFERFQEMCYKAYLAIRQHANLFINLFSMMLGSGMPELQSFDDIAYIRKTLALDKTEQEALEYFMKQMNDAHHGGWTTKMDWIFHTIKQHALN

The assay has as its target PIK3CA (human) (UniProt P42336). Nature of the assay: Assessment of PIK3CA Kinase Activity.
In turn, `COC(=O)C(C)Cn1cc(-c2ccc3c(c2)OCCn2cc(-c4nc(C)nn4C(C)C)nc2-3)cn1` (stereo unspecified) had a half-inhibitory concentration (IC50) of less than 1 µM.

`CC(C)N1CCN(C(=O)c2ccc3c(c2)-c2nc(-c4ncnn4-c4ccccc4Cl)cn2CCO3)CC1` returned an IC50 of less than 1 µM.

The compound `NC(=O)[C@@H]1CCN1c1ccc2c(c1)OCCn1cc(-c3ncnn3CC(F)(F)F)nc1-2` returned an IC50 of less than 1 µM.

In turn, `Cc1nc(-c2cn3c(n2)-c2ccc(-c4cnn(CC(C)C(N)=O)c4)cc2OCC3)n(C(C)C)n1` (stereo unspecified) returned a half-maximal inhibitory concentration (IC50) of less than 1 µM.

Take `Oc1ccc2c(c1)OCCn1cc(-c3ncnn3CC(F)(F)F)nc1-2`: the IC50 is less than 1 µM.

For `CC(C)n1ncnc1-c1cn2c(n1)-c1cnc(N3CC=C[C@H]3C(N)=O)cc1OCC2`, the concentration for half-maximal inhibition (IC50) was less than 1 µM.

In turn, `CC(C)n1ncnc1-c1cn2c(n1)-c1cnc(N3C[C@H](O)C[C@H]3C(N)=O)cc1OCC2` showed an IC50 of less than 1 µM.

In turn, `Cc1nc(-c2cn3c(n2)-c2ccc(OC4CCC4)cc2OCC3)n(C(C)C)n1` returned a 50% inhibitory concentration (IC50) of less than 1 µM.

In the case of `COCc1nc(-c2cn3c(n2)-c2ccc(C4CCN(CC(N)=O)CC4)cc2OCC3)n(C(C)C)n1`, the concentration for half-maximal inhibition (IC50) is less than 1 µM.

The compound `CC(C)N1CCC(c2ccc3c(c2)OCCn2cc(-c4ncnn4C(C)C)nc2-3)C(C(N)=O)C1` (stereo unspecified) had a 50% inhibitory concentration (IC50) of less than 1 µM.

In turn, `CCN1CCC(c2ccc3c(c2)OCCn2cc(-c4ncnn4C(C)C)nc2-3)CC1` came in with an IC50 of less than 1 µM.

As to `Cc1nc(-c2cn3c(n2)-c2ccc(CNC(N)=O)cc2OCC3)n(-c2ccc(F)cc2F)n1`, the half-inhibitory concentration (IC50) was less than 1 µM.

`CCOC(=O)C(C)Cn1cc(-c2ccc3c(c2)OCCn2cc(-c4nc(C)nn4C(C)C)nc2-3)cn1` (stereo unspecified): the IC50 is less than 1 µM.

Compound `CC(C)n1ncnc1-c1cc2n(n1)-c1cc(C(=O)N3CCN(CC(F)(F)F)CC3)ccc1OCC2` came in with a 50% inhibitory concentration (IC50) of less than 1 µM.

For the compound `Cc1nc(-c2cn3c(n2)-c2ccc(-c4cnn(CC(C)(C)O)c4)cc2OCC3)n(C(C)C)n1`, the concentration for half-maximal inhibition (IC50) is less than 1 µM.

In the case of `Cc1nc(-c2cn3c(n2)-c2ccc(-c4cnn(CCO)c4)cc2OCC3)n(C(C)C)n1`, the 50% inhibitory concentration (IC50) was less than 1 µM.

In turn, `CC(Cc1ccc2c(c1)OCCn1cc(-c3ncnn3C(C)C)nc1-2)C(N)=O` (stereo unspecified) yielded an IC50 of less than 1 µM.

Compound `CC(C)n1ncnc1-c1cn2c(n1)-c1cc(-c3ccc(=O)[nH]c3)ncc1OCC2` returned a 50% inhibitory concentration (IC50) of less than 1 µM.

As to `NC(=O)[C@@H]1COCCN1c1ccc2c(c1)OCCn1cc(-c3ncnn3CC(F)(F)F)nc1-2`, the IC50 is less than 1 µM.

The compound `CC(C)CC(Oc1ccc2c(c1)OCCn1cc(-c3ncnn3C(C)C)nc1-2)C(N)=O` (stereo unspecified) came in with a half-maximal inhibitory concentration (IC50) of less than 1 µM.

`CC(C)n1nc(N)nc1-c1cn2c(n1)-c1cc(F)ccc1OCC2` returned an IC50 of less than 1 µM.

The compound `CCOC(=O)C(C)(C)n1cc(-c2ccc3c(c2)OCCn2cc(-c4nc(C)nn4C(C)C)nc2-3)cn1` returned a concentration for half-maximal inhibition (IC50) of less than 1 µM.

With `CC(C)n1ncnc1-c1cn2c(n1)-c1cc(C(=O)N3CCS(=O)(=O)CC3)ccc1OCC2`, the IC50 is less than 1 µM.

In turn, `CC(C)n1ncnc1-c1cn2c(n1)-c1cc(N3CCNC(=O)C3)ncc1OCC2` displayed a half-maximal inhibitory concentration (IC50) of less than 1 µM.

`Clc1ccc(-c2ccc3c(c2)-c2nc(-c4ncnn4-c4ccccc4Cl)cn2CCO3)cc1` came in with an IC50 of less than 1 µM.

With `COc1ccc2c(c1)OCCn1cc(-c3ncnn3C(C)C)nc1-2`, the concentration for half-maximal inhibition (IC50) is less than 1 µM.

Compound `CC(C)n1ncnc1-c1cn2c(n1)-c1ccc(-c3ccccc3C(N)=O)cc1OCC2` showed an IC50 of less than 1 µM.

`c1cn(CCN2CCOCC2)c(-c2cn3c(n2)-c2cc(-c4cn[nH]c4)ccc2OCC3)n1` yielded an IC50 of less than 1 µM.

`Cc1nc(-c2cn3c(n2)-c2ccc(CNCC(C)(C)O)cc2OCC3)n(-c2ccc(F)cc2F)n1` showed a 50% inhibitory concentration (IC50) of less than 1 µM.

Regarding `CC(C)n1ncnc1-c1cn2c(n1)-c1ccncc1OCC2`, the IC50 was less than 1 µM.

For the compound `O=c1[nH]cccc1-c1ccc2c(c1)-c1nc(-c3ncnn3CC(F)(F)F)cn1CCO2`, the 50% inhibitory concentration (IC50) is less than 1 µM.

Consider `Cc1nc(-c2cn3c(n2)-c2ccc(OCC(F)(F)F)cc2OCC3)n(C(C)C)n1`, for which the half-inhibitory concentration (IC50) is less than 1 µM.

For the compound `CCOc1ccc2c(c1)OCCn1cc(-c3ncnn3C(C)C)nc1-2`, the IC50 is less than 1 µM.

Take `CC(C)(O)Cn1cc(-c2ccc3c(c2)OCCn2cc(C(=O)N4CCS(=O)(=O)CC4)nc2-3)cn1`: the IC50 was less than 1 µM.

In turn, `Cc1nc(-c2cn3c(n2)-c2cc(F)ccc2OCC3)n(C(C)C)n1` gave a half-maximal inhibitory concentration (IC50) of less than 1 µM.

With `CC(C)n1ncnc1-c1cn2c(n1)-c1ccc(C3CCN(CC(N)=O)CC3)cc1OCC2`, the concentration for half-maximal inhibition (IC50) was less than 1 µM.

`CONC(=O)c1ccc2c(c1)OCCn1cc(-c3ncnn3C(C)C)nc1-2` registered an IC50 of less than 1 µM.

Regarding `CC(C)n1ncnc1-c1cn2c(n1)-c1cc(NCC(O)CO)ncc1OCC2` (stereo unspecified), the IC50 is less than 1 µM.

In turn, `CC(C)n1nccc1-c1cn2c(n1)-c1cnc(Cl)cc1OCC2` had an IC50 of less than 1 µM.

The compound `CC(C)(CO)NC(=O)c1ccc2c(c1)OCCn1cc(-c3ncnn3-c3ccccc3Cl)nc1-2` displayed a half-maximal inhibitory concentration (IC50) of less than 1 µM.

For `CC(C)n1ncnc1-c1cn2c(n1)-c1ccc(N3CCCCC3C(N)=O)cc1OCC2` (stereo unspecified), the IC50 was less than 1 µM.

In the case of `CC(Sc1ccc2c(c1)OCCn1cc(-c3ncnn3C(C)C)nc1-2)C(N)=O` (stereo unspecified), the half-maximal inhibitory concentration (IC50) is less than 1 µM.

Compound `CC(C)n1ncnc1-c1cn2c(n1)-c1ccc(OC(C(N)=O)C3CC3)cc1OCC2` (stereo unspecified) displayed a half-maximal inhibitory concentration (IC50) of less than 1 µM.

For `CNc1ccc2c(n1)OCCn1cc(-c3ncnn3C(C)C)nc1-2`, the half-maximal inhibitory concentration (IC50) is less than 1 µM.

The compound `O=C(Nc1cn[nH]c1)c1ccc2c(c1)-n1nc(-c3ncnn3CC(F)(F)F)cc1CCO2` came in with a half-maximal inhibitory concentration (IC50) of less than 1 µM.

In turn, `FC(F)(F)Cn1ncnc1-c1cc2n(n1)-c1cc(CNc3cnccn3)ccc1OCC2` yielded an IC50 of less than 1 µM.

On to `COCc1nc(-c2cn3c(n2)-c2ccc(C)cc2OCC3)n(C(C)C)n1`, for which the half-maximal inhibitory concentration (IC50) was less than 1 µM.

Take `CC(C)C(Oc1ccc2c(c1)OCCn1cc(-c3ncnn3C(C)C)nc1-2)C(N)=O` (stereo unspecified): the concentration for half-maximal inhibition (IC50) is less than 1 µM.

As for `O=C(CO)N1CCC(c2ccc3c(c2)-n2nc(-c4ncnn4CC(F)(F)F)cc2CCO3)CC1`, the IC50 is less than 1 µM.

`CC(C)n1ncnc1-c1cn2c(n1)-c1ccc(-c3cnc[nH]3)cc1OCC2` displayed a half-maximal inhibitory concentration (IC50) of less than 1 µM.

The compound `CC(C)(CO)NC(=O)c1ccc2c(c1)-c1nc(-c3ncnn3-c3ccc(F)cc3F)cn1CCO2` came in with an IC50 of less than 1 µM.

As to `Nc1nc(-c2cn3c(n2)-c2cc(-c4ccccc4)ccc2OCC3)n(-c2ccccc2Cl)n1`, the half-inhibitory concentration (IC50) is less than 1 µM.

`CC(C)N1CCC(c2ccc3c(c2)OCCn2cc(-c4ncnn4C(C)C)nc2-3)CC1` displayed a 50% inhibitory concentration (IC50) of less than 1 µM.

As to `CC(C)n1nccc1-c1cn2c(n1)-c1ccc(C(N)=O)cc1OCC2`, the IC50 was less than 1 µM.

In the case of `COC(=O)c1ccc2c(c1)OCCn1cc(-c3ccccc3C(C)C)nc1-2`, the IC50 was less than 1 µM.

`CC(C)n1ncnc1-c1cn2c(n1)-c1cnccc1OCC2` returned a 50% inhibitory concentration (IC50) of less than 1 µM.

The compound `Cc1nc(-c2cn3c(n2)-c2ccc(-c4cnn(CCO)c4)cc2OCC3)n(C)n1` had a concentration for half-maximal inhibition (IC50) of less than 1 µM.

Turning to `CNC(=O)c1ccc2c(c1)OCCn1cc(-c3ncnn3CC(F)(F)F)nc1-2`, the concentration for half-maximal inhibition (IC50) was less than 1 µM.

`Fc1ccc(-n2ncnc2-n2cc3c(n2)-c2ccc(Br)cc2OCC3)c(F)c1` displayed an IC50 of 0.058 µM.

`C[C@H](Oc1ccc2c(c1)OCCn1cc(-c3ncnn3CC(F)(F)F)nc1-2)C(N)=O` came in with an IC50 of less than 1 µM.

`CC(C)n1ncnc1-c1cn2c(n1)-c1cnc(N3CC(O)C3)cc1OCC2` displayed an IC50 of less than 1 µM.

Take `CC(C)n1nc(N)nc1-c1cn2c(n1)-c1ccc(-c3cnn(CC(C)(C)O)c3)cc1OCC2`: the concentration for half-maximal inhibition (IC50) was less than 1 µM.

For `NC(=O)[C@@H]1CCCN1c1cc2c(cn1)-c1nc(-c3ncnn3-c3ccc(F)cc3F)cn1CCO2`, the IC50 is less than 1 µM.

In turn, `CC(C)n1ncnc1-c1cn2c(n1)-c1ccc(OCC(F)(F)F)cc1OCC2` gave an IC50 of less than 1 µM.

In the case of `Cc1nc(-c2cn3c(n2)-c2cnc(N4CCCC4Cc4ccccc4C)cc2OCC3)n(CC(F)(F)F)n1` (stereo unspecified), the IC50 was less than 1 µM.

On to `Nc1nc(-c2cn3c(n2)-c2cc(C4CC4)ccc2OCC3)n(CC(F)(F)F)n1`, for which the IC50 is less than 1 µM.

Compound `CC(C)n1ncnc1-c1cn2c(n1)-c1cnc(N3C[C@@H](O)C[C@H]3C(N)=O)cc1OCC2` gave an IC50 of less than 1 µM.

As to `Cc1nc(-c2cn3c(n2)-c2ccc(-c4cnn(CC(C)C(=O)O)c4)cc2OCC3)n(C(C)C)n1` (stereo unspecified), the IC50 is less than 1 µM.

`CC(C)n1ncnc1-n1cc2c(n1)-c1cc(C(=O)Nc3cnn(CCO)c3)ccc1OCC2` had an IC50 of less than 1 µM.

`CC(C)n1ncnc1-c1cn2c(n1)-c1ccc(C3CCN(CC(C)(C)O)CC3)cc1OCC2`: the half-inhibitory concentration (IC50) is less than 1 µM.

In turn, `CC(C)n1ncnc1-c1cc2n(n1)-c1cc(C(=O)Nc3ccon3)ccc1OCC2` gave an IC50 of less than 1 µM.

For the compound `CC(C)n1ncnc1-c1cn2c(n1)-c1ccc(C3=CCN(C)CC3C(N)=O)cc1OCC2` (stereo unspecified), the 50% inhibitory concentration (IC50) is less than 1 µM.

The compound `CC(C)n1ncnc1-c1cn2c(n1)-c1ccc(-c3cncn3CCO)cc1OCC2` registered a half-inhibitory concentration (IC50) of less than 1 µM.

In the case of `CC(C)n1ncnc1-c1cn2c(n1)-c1cc(C(=O)N3CCC(C(C)(C)O)CC3)ccc1OCC2`, the concentration for half-maximal inhibition (IC50) was less than 1 µM.

Turning to `Cc1nc(-c2cn3c(n2)-c2cnc(N4CCC[C@H]4C(N)=O)cc2OCC3)n(C(C)C)n1`, the IC50 was less than 1 µM.

Compound `COc1ccc2c(c1)OCCn1cc(-c3nc(C)nn3C(C)C)nc1-2` came in with a half-maximal inhibitory concentration (IC50) of less than 1 µM.

`Cc1nc(-c2cn3c(n2)-c2ccc(C4CCN(CC(=O)N(C)C)CC4)cc2OCC3)n(C(C)C)n1`: the 50% inhibitory concentration (IC50) is less than 1 µM.

With `CC(C)n1ncnc1-n1cc2c(n1)-c1ccc(Br)cc1OCC2`, the IC50 is less than 1 µM.

Consider `Clc1ccccc1-n1ncnc1-c1cn2c(n1)-c1cc(-c3ccccc3)ccc1OCC2`, for which the IC50 is less than 1 µM.

`CC(C)n1ncnc1-c1cn2c(n1)-c1cnc(O[C@H](C)C(N)=O)cc1OCC2` returned a concentration for half-maximal inhibition (IC50) of less than 1 µM.

On to `CC(C)n1ncnc1-c1cn2c(n1)-c1ccc(OC(F)F)cc1OCC2`, for which the IC50 is less than 1 µM.

On to `CC(C)n1ncnc1-c1cn2c(n1)-c1ccc(-c3cnn(CCO)c3)cc1OCC2`, for which the IC50 is less than 1 µM.

`CC(C)n1nccc1-c1cn2c(n1)CCOc1cc(C(N)=O)cnc1-2`: the 50% inhibitory concentration (IC50) is less than 1 µM.

On to `CN(C)c1cc2c(cn1)-c1nc(-c3nc(CO)nn3CC(F)(F)F)cn1CCO2`, for which the IC50 is less than 1 µM.

Consider `CC(C)n1ncnc1-c1cn2c(n1)-c1cnc(N3C[C@H](C#N)C[C@H]3C(N)=O)cc1OCC2`, for which the concentration for half-maximal inhibition (IC50) is less than 1 µM.

In turn, `CC(C)NC(=O)CN1CCC(c2ccc3c(c2)OCCn2cc(-c4ncnn4C(C)C)nc2-3)CC1` came in with a 50% inhibitory concentration (IC50) of less than 1 µM.

What is called IC50 is the concentration at which inhibition is half-maximal. Read a low IC50 as greater potency in that assay.
